# Measured values: patent publication US11878972B2, “Treatment of neurological disorders” (TORQUR AG, priority 2016, dated 2024)
# Read-outs that look alike come from different tables or passages of the source.
# How the values were obtained:
# [1] = PK in Sprague Dawley (SD) rats; type: in vivo, rat
# Description: A single oral administration of cpd. 3, 10 mg/kg was given to female SD rats in a vehicle consisting of DMSO/HPBCD 20% (10/90). Animals were housed in controlled environment and enclosures provided sterile and adequate space with bedding material, food and water, environmental and social enrichment (group housing). Rats were randomized according to their individual body weight, treated and blood, brain and liver were collected and snap frozen at the following time points: 0.5, 2, 4 and 8 hours. Blood (approximately 500-700 μL, collected via cardiac puncture under anesthesia) was immediately transferred into tubes containing lithium-heparin as anticoagulant (Ref: T MLH, Venoject®, Terumo). Tubes were centrifuged at 1,300 g for 10 minutes at +4° C. The resulting plasma was collected and snap frozen in liquid nitrogen and stored at −80° C. until analysis.
# Compound concentrations were detected by HPLC-MS/MS. The calibration curves were drawn using standards of known concentrations.
# [2] = tested on: mTOR signaling cascade (phosphorylation of S6rP and AKT); test: Target engagement in brain and thigh muscle (western blot); type: in vivo, mouse; conditions: single oral 50 mg/kg
# Description: Tissue was snap frozen in liquid nitrogen and stored at −80° C. Tissue was thawed and lysed in RIPA buffer 1 ml/half brain. Complete protease inhibitor and PhosStop phosphatase inhibitor (Roche) was added to the buffer before lysis. Tissue was homogenized manually and centrifuged twice at 16000 rpm, 4° C. for 20 minutes. Supernatant was frozen with 10% glycerol at −80° C. Protein concentration was performed using Bradford reagent. For western blot analysis of AKT and S6rP phosphorylation, 30 μg of protein was denatured with β-mercaptoethanol at 95° C. and separated on SDS page gels at 100 V. Then proteins were transferred to a nitrocellulose membrane (Bio-Rad, USA) at 80 V. Non-specific binding was blocked with 5% bovine serum albumin (BSA) (Sigma-Aldrich, USA). Membranes were incubated over night with primary antibody dissolved in TBST, 5% BSA at 4° C. and with secondary antibody coupled to horseradish peroxidase (GE Healthcare, UK) for 1 hour at RT and washed. Imaging of protein bands was performed using Luminol (Biozym, Hamburg, Germany. On a Li-Cor Odyssey FC reader. Quantification of S6-phosphorylation was determined with the same imaging system.
# The following antibodies were used: • AKT, P-AKT (S473), S6rP, P-S6rP(S235/236): Cell Signaling (UK) • β-actin: Sigma Aldrich, USA
# [3] = tested on: R6/2 mice (mutHTT aggregates in the striatum); test: Immunohistochemistry of mutHTT aggregates in striata of long-term treated R6/2 mice; type: in vivo, mouse; conditions: p.o. 11.5 weeks, Cpd. 3 65 mg/kg, Cpd. 8 16.25 mg/kg, versus vehicle controls
# From the text: An in vivo model of Huntington's disease was used to evaluate the efficacy of Cpd. 3 and cpd. 8 in reducing mutHTT aggregate formation in the striatum. R6/2 mice are a B6CBA-Tg(HDexon1)62Gbp/3J Huntington's disease mouse model expressing exon 1 of the human huntingtin gene with an extension of 160 f 5 CAG repeats. Mice have a severe phenotype that develops between 4 and 12 weeks.
# Treatment groups were established from genotype and measurement of weight, rotarod performance and litter. They were distributed equally over the four groups, each group contained 12 animals. R6/2 mice and their wt counterparts were dosed in the following treatment groups: 1. Wt, vehicle (20% SBECD in water, pH 3); 2. R6/2 vehicle (20% SBECD in water, pH 3); 3. R6/2 Cpd. 3 (65 mg/kg); 4. R6/2 Cpd.8 (16.25 mg/kg). Per oral dosing was performed for 6 days with a following drug holiday of 1 day for a total of 11.5 weeks.
# To detect mutHTT aggregates, immunostaining of striata was performed. […]
# Images were acquired using a Zeiss Axioplan microscope (Plan-NEOFLUAR×40/0.75 objective, AxioCam MRc) and Axiovision 4.8 software (Carl Zeiss Microscopy GmbH, Jena, Germany). Per animal three subsequent sections of the striatum were analyzed, 4 animals were analysed The EM48 positive structures were analyzed with the ImageJ built in particle analysis, with a fixed threshold for all pictures (ImageJ 1.47v; NIH, Bethesda, MD, USA). […]
# Tsc1GFAP knockout mice = test: Electrographic seizures in Tsc1 GFAP conditional knockout mice
# Description: Tsc1 mice belonging to either sex were acclimated to the environment, examined, handled, and weighed prior to initiation of the study to assure adequate health and suitability and to minimize non-specific stress associated with human handling. During the course of the study, 12/12 light/dark cycles were maintained. The room temperature was maintained between 20 and 23° C. with a relative humidity maintained around 50%. Food and water were provided ad libitum for the duration of the study. Each mouse was randomly assigned to designated treatment groups. The dosing was performed during the animals' light cycle phase.
# Aseptic technique was used throughout the surgical procedures described below. […] Adequate plane of anesthesia was insured by the lack of a withdrawal response to toe pinch and a visible change in the breathing rate. The mouse head was immobilized in a stereotaxic frame with a nose piece that supplied the anesthetic continuously. Ophthalmic ointment was applied to the eyes to prevent drying of the cornea. […]
# EEG was recorded using 10× or 100× gain pre-amplifiers. […]
# Simultaneously, videographic recording was made through this period to provide a data stream for behavioral evaluation of the mice as needed. After the recording period was completed, individual EEG traces were evaluated for aberrant EEG activity. […]
# pPKB S473 in A2058 cells = test: In-cell Western blot, pPKB S473; type: cell-based; conditions: Homo sapiens, treated for 1 hour, normalized to α-tubulin
# Description: (§1) Cells are fixed with 4% paraformaldehyde for 30 minutes at room temperature, washed 2 times with 1% BSA in PBS, permeabilized with 0.1% Triton X-100 in PBS/1% BSA for 30 minutes at room temperature and blocked with 5% goat serum in PBS/1% BSA/0.1% Triton X-100 for 30 minutes at room temperature. […] Cells are washed 3 times 5 minutes with PBS/1% BSA/0.1% triton and plate scanned with the Odyssey Infrared Scanning system using both 700 and 800 nm channels. […] To correct for background staining in the data analysis wells are treated only with secondary antibodies.
# (§2) For data analysis the mean background signal from channel 700 nm and 800 nm are subtracted from each signal in channel 700 nm and 800 nm, respectively.
# (§3) IC50 values of each compound are determined by plotting the normalized pPBK S473 and pS6 S235/S236 signals, respectively, versus the compound concentrations (in logarithmic scale) and then by fitting a sigmoidal dose-response curve with variable slope to the data using GraphPad™ Prism.
# [4] = tested on: pS6 S235/S236 in A2058 cells; test: In-cell Western blot, pS6 S235/S236; type: cell-based; conditions: Homo sapiens, A2058, 1 h, treated for 1 hour, normalized to α-tubulin
# Description: as §1, §2, §3
# [5] = female, Sprague-Dawley, plasma, rat, po, 10 mg/kg, single
SMILES,"oral bioavailability ([1]; SD rats, single oral 10 mg/kg)","penetration into the brain ([1]; SD rats, single oral 10 mg/kg)","Tmax ([1]; female, Sprague-Dawley, brain, rat, po, 10 mg/kg, single, read-out: Brain Tmax)","AUC [1, 5]","Cmax [1, 5]","Tmax ([1]; female, Sprague-Dawley, plasma, rat, po, 10 mg/kg, single, read-out: Plasma Tmax)","Brain AUC ([1]; rat, po, 10 mg/kg, single)","Brain Cmax ([1]; rat, po, 10 mg/kg, single)",phosphorylation of S6rP and AKT in brain and thigh muscle ([2]; B57BL/6J mice),"S6 phosphorylation in brain lysates ([2]; mice, 30 minutes to 8 hours)","S6 phosphorylation in thigh muscle lysates ([2]; mice, 30 minutes to 8 hours)",number of mutHTT aggregates counted in striata [3],"Body weight (Tsc1GFAP knockout mice; TSC1 GFAP mice, during treatment)","effect on spontaneous electrographic seizures (Tsc1GFAP knockout mice; Tsc1 GFAP mice, chronic treatment)",IC50 (pPKB S473 in A2058 cells),IC50 [4]
"Nc1cc(C(F)F)c(-c2nc(N3C4CCC3COC4)nc(N3C4CCC3COC4)n2)cn1 [Compound 3, 5-(4-(3-oxa-8-azabicyclo[3.2.1]octan-8-yl)-6-(3-oxa-8-azabicyclo[3.2.1]octan-8-yl)-1,3,5-triazin-2-yl)-4-(difluoromethyl)pyridin-2-amine]",good oral bioavailability,excellent penetration into the brain,30 min,400 ng·h/mL,1400 ng/mL,30 min,2500 ng·h/mL,1.3 µg/g,significantly reduced phosphorylation of S6rP and AKT,reduction of S6 phosphorylation,reduction of S6 phosphorylation,not changed,higher towards the end of the study,strongly reduce spontaneous seizures,–,–
"C[C@H]1COCCN1c1nc(-c2cnc(N)cc2C(F)F)nc(N2CCOCC2)n1 [Compound 8, (S)-4-(difluoromethyl)-5-(4-(3-methylmorpholino)-6-morpholino-1,3,5-triazin-2-yl)pyridin-2-amine]",–,–,–,–,–,–,–,–,–,–,–,–,–,–,74 nM,68 nM
